Several values for one entry are separate records, joined by “and”; a condition that tells them apart may be missing. Identical values can stand only once.
Tested on: GIP-C cells
Experiment: Attachment factors study with subcultured GIP-C cells (cell counts in supernatant and of attached cells)
Type: cell-based
Details: for Attaching of cells from 2-5 μm (comparison of attachment factors): cells 2-5 μm; for Cell counts in Supernatant, 2-5 μm / Cell counts of Attached cells, 2-5 μm / Cell counts of Attached cells, 5-8 μm / Cell counts in Supernatant, 5-8 μm: wells coated with attachment factor, RPMI 1640 media with supplements, two wells each
Experimental: Two of the six well plates were coated with the following attachment factors: Collagen type IV, Fibronectin, Superfibronectin, ECM gel and Laminin. Collagen type IV (2 mg/ml) was made by dissolving 0.75 mg of collagen in 375 μl of sterilized 0.25% acetic acid. Collagen type IV (187.5 μl) was used to coat two wells and Incubated overnight at 2-8° C. Fibronectin (250 μl of 10 μg/ml) was used to coat each well and air-dried at room temperature for 45 minutes. Superfibronectin (250 μl of 5 μg/ml) was used to coat each well and incubated at 37° C. for two hours. The wells were then washed twice with 100 μl of PBS, and left to air dry in a laminar flow hood. ECM gel was thawed overnight before use; 250 μl of ECM gel was mixed with 250 μl of cold DMEM medium before using 250 μl of the mixture to coat precooled wells. The ECM gel was then left for five minutes at 20° C. for the gel to polymerize. An aliquot of 200 μg/200 μl of laminin was thawed at 4° C. for 2-4 hrs before making a dilution using 36 μl of stock solution and diluting it with 464 μl of sterile PBS. Laminin (250 μl, 18 μg/well) was used to coat each well. The plates with laminin were then air-dried for 45 minutes. All of the plates containing the attachment factors were sterilized overnight by exposure to UV light in a sterile tissue culture hood.
RPMI 1640 media (250 ml) was obtained from Invitrogen (11875-085), to which the following supplements were added: 100 ng/ml of cholera-toxin (Sigma, C8052), 500 ng/ml of hydrocortisone (Sigma, H0888), 5% of heat inactivated horse serum (Gibco, 16050-130) and 25 ml of Mesenchymal supplement (Stemcell technologies, 05402). After the media was filter sterilized and aliquots of 26 ml were made, they were stored at 4° C.
RPMI 1640 media with all the supplements was warmed at 37° C. Two ml of the media was added to each well containing the attachment factors along with 3 control wells which contained no attachment factors. Cells previously subcultured in mesencult medium were pelleted and divided into 100,000 cells per well and incubated at 37° C. The cells were observed under a phase-contrast microscope. Once, every two days the top layer containing the unattached GIP-C cells was removed, washed and resuspended in freezing media. Two ml of RPMI 1640 media with the supplements was added to the wells and incubated at 37° C.
The gastrointestinal progenitor cells in culture were found mostly in suspension in the culture media. In order to test the adherence of these cells a study was conducted where they were plated on tissue culture wells coated with each of the five different epithelial cell attachment factors: collagen type IV, laminin, superfibronectin, fibronectin, and ECM gel. There were three control wells with no attachment factors in them.

Row | Substance | Attaching of cells from 2-5 μm (comparison of attachment factors) | Cell counts in Supernatant, 2-5 μm | Cell counts of Attached cells, 2-5 μm | Cell counts of Attached cells, 5-8 μm | Cell counts in Supernatant, 5-8 μm
1 | Collagen type IV | seemed to be better at attaching cells | 1.22E+07 Cells/ml and 1.60E+07 Cells/ml | 2.25E+06 Cells/ml and 1.19E+06 Cells/ml | 57486 Cells/ml | –
2 | Fibronectin | – | – | 68340 Cells/ml | – | 68340 Cells/ml and 63918 Cells/ml
3 | Laminin | – | 4.09E+07 Cells/ml and 3.04E+07 Cells/ml | 974448 Cells/ml and 643602 Cells/ml | 40602 Cells/ml and 43416 Cells/ml | 90048 Cells/ml and 84822 Cells/ml
4 | Superfibronectin | seemed to be better at attaching cells | 3.96E+07 Cells/ml and 5.06E+07 Cells/ml | 1.62E+06 Cells/ml and 1.35E+06 Cells/ml | – | 67536 Cells/ml and 54672 Cells/ml
